According to the NIST ThermoML archive (doi:10.1016/j.jct.2013.11.022):

Assay: mn = molality of the nth substance listed, in mol/kg
Conditions: 101.33 kPa, Liquid; for viscosity: Capillary tube (Ostwald / Ubbelohde) method; for speed of sound: Sing-around technique in a fixed-path interferometer; for mass density: Vibrating tube method

CCCCCCCCCCCCOS(=O)(=O)[O-].[Na+] [sodium dodecyl sulfate] + O
Conditions	mass density [kg/m3]	speed of sound [m/s]	viscosity [mPa·s]
293.15 K, m1 = 0.0001	998.198	1482.9	1.014
293.15 K, m1 = 0.0003	998.209	1482.9	1.014
293.15 K, m1 = 0.0005	998.221	1483	1.016
293.15 K, m1 = 0.002	998.31	1483.2	1.02
293.15 K, m1 = 0.004	998.425	1483.5	1.02
293.15 K, m1 = 0.006	998.538	1483.7	1.024
293.15 K, m1 = 0.008	998.647	1484	1.026
293.15 K, m1 = 0.01	998.75	1484.2	1.027
293.15 K, m1 = 0.012	998.851	1484.5	1.029
293.15 K, m1 = 0.014	998.949	1484.6	1.034
293.15 K, m1 = 0.016	999.048	1484.8	1.036
293.15 K, m1 = 0.018	999.145	1484.9	1.04
293.15 K, m1 = 0.02	999.237	1485	1.042
293.15 K, m1 = 0.022	999.338	1485.2	1.047
293.15 K, m1 = 0.024	999.426	1485.3	1.052
298.15 K, m1 = 0.0001	997.034	1497	0.895
298.15 K, m1 = 0.0003	997.045	1497	0.8952
298.15 K, m1 = 0.0005	997.057	1497.1	0.8955
298.15 K, m1 = 0.002	997.144	1497.3	0.8963
298.15 K, m1 = 0.004	997.255	1497.6	0.8969
298.15 K, m1 = 0.006	997.365	1497.8	0.8976
298.15 K, m1 = 0.008	997.472	1498.1	0.8981
298.15 K, m1 = 0.01	997.569	1498.4	0.899
298.15 K, m1 = 0.012	997.67	1498.6	0.9008
298.15 K, m1 = 0.014	997.768	1498.7	0.9073
298.15 K, m1 = 0.016	997.867	1498.9	0.9091
298.15 K, m1 = 0.018	997.957	1499	0.9114
298.15 K, m1 = 0.02	998.048	1499.1	0.9136
298.15 K, m1 = 0.022	998.142	1499.3	0.9191
298.15 K, m1 = 0.024	998.232	1499.4	0.9211
303.15 K, m1 = 0.0001	995.633	1509.3	0.801
303.15 K, m1 = 0.0003	995.644	1509.4	0.8015
303.15 K, m1 = 0.0005	995.655	1509.4	0.8018
303.15 K, m1 = 0.002	995.74	1509.6	0.8024
303.15 K, m1 = 0.004	995.848	1509.9	0.8028
303.15 K, m1 = 0.006	995.955	1510.2	0.8032
303.15 K, m1 = 0.008	996.058	1510.4	0.8037
303.15 K, m1 = 0.01	996.155	1510.7	0.8039
303.15 K, m1 = 0.012	996.252	1510.8	0.8054
303.15 K, m1 = 0.014	996.348	1511	0.8085
303.15 K, m1 = 0.016	996.441	1511.2	0.8114
303.15 K, m1 = 0.018	996.536	1511.3	0.8135
303.15 K, m1 = 0.02	996.624	1511.4	0.8161
303.15 K, m1 = 0.022	996.718	1511.6	0.8193
303.15 K, m1 = 0.024	996.807	1511.7	0.8206
308.15 K, m1 = 0.0001	994.016	1520	0.7228
308.15 K, m1 = 0.0003	994.026	1520	0.7232
308.15 K, m1 = 0.0005	994.037	1520	0.7236
308.15 K, m1 = 0.002	994.12	1520.2	0.7241
308.15 K, m1 = 0.004	994.224	1520.5	0.7245
308.15 K, m1 = 0.006	994.327	1520.8	0.725
308.15 K, m1 = 0.008	994.429	1521	0.7253
308.15 K, m1 = 0.01	994.524	1521.3	0.7259
308.15 K, m1 = 0.012	994.619	1521.5	0.7264
308.15 K, m1 = 0.014	994.715	1521.6	0.7279
308.15 K, m1 = 0.016	994.806	1521.8	0.73
308.15 K, m1 = 0.018	994.898	1521.9	0.7345
308.15 K, m1 = 0.02	994.988	1522	0.7388
308.15 K, m1 = 0.022	995.076	1522.2	0.7422
308.15 K, m1 = 0.024	995.164	1522.3	0.7465
313.15 K, m1 = 0.0001	992.2	1529	0.6564
313.15 K, m1 = 0.0003	992.21	1529	0.6566
313.15 K, m1 = 0.0005	992.22	1529.1	0.657
313.15 K, m1 = 0.002	992.299	1529.3	0.6576
313.15 K, m1 = 0.004	992.402	1529.5	0.6585
313.15 K, m1 = 0.006	992.5	1529.8	0.6599
313.15 K, m1 = 0.008	992.601	1530.1	0.6616
313.15 K, m1 = 0.01	992.696	1530.3	0.6628
313.15 K, m1 = 0.012	992.789	1530.5	0.6646
313.15 K, m1 = 0.014	992.884	1530.7	0.6667
313.15 K, m1 = 0.016	992.975	1530.8	0.6689
313.15 K, m1 = 0.018	993.061	1530.9	0.6718
313.15 K, m1 = 0.02	993.153	1531.1	0.6747
313.15 K, m1 = 0.022	993.239	1531.2	0.6775
313.15 K, m1 = 0.024	993.323	1531.3	0.6794

NCC(=O)O [2-aminoacetic acid] + O
Conditions	mass density [kg/m3]	speed of sound [m/s]	viscosity [mPa·s]
293.15 K, m1 = 0.05	999.804	1486.2	1.013
293.15 K, m1 = 0.0999	1001.4	1488.6	1.022
293.15 K, m1 = 0.1499	1002.99	1491.1	1.029
293.15 K, m1 = 0.2001	1004.57	1493.6	1.036
293.15 K, m1 = 0.2504	1006.14	1496	1.039
293.15 K, m1 = 0.2999	1007.67	1498.4	1.048
293.15 K, m1 = 0.3501	1009.21	1500.8	1.056
293.15 K, m1 = 0.3998	1010.72	1503.2	1.06
298.15 K, m1 = 0.05	–	1500.3	0.8991
298.15 K, m1 = 0.0999	1000.21	1502.7	0.908
298.15 K, m1 = 0.1499	1001.78	1505.1	0.9168
298.15 K, m1 = 0.2001	1003.34	1507.5	0.9232
298.15 K, m1 = 0.2504	1004.9	1510	0.9281
298.15 K, m1 = 0.2999	1006.41	1512.3	0.933
298.15 K, m1 = 0.3501	1007.93	1514.7	0.9379
298.15 K, m1 = 0.3998	1009.43	1517	0.946
303.15 K, m1 = 0.05	–	1512.6	0.8077
303.15 K, m1 = 0.0999	998.773	1514.9	0.8177
303.15 K, m1 = 0.1499	1000.33	1517.3	0.8258
303.15 K, m1 = 0.2001	1001.88	1519.6	0.8319
303.15 K, m1 = 0.2504	1003.42	1522	0.8398
303.15 K, m1 = 0.2999	1004.92	1524.2	0.8434
303.15 K, m1 = 0.3501	1006.43	1526.5	0.8511
303.15 K, m1 = 0.3998	1007.92	1528.8	0.8533
308.15 K, m1 = 0.05	995.577	1523.1	0.7296
308.15 K, m1 = 0.0999	997.132	1525.4	0.7366
308.15 K, m1 = 0.1499	998.677	1527.7	0.7404
308.15 K, m1 = 0.2001	1000.22	1530	0.7474
308.15 K, m1 = 0.2504	1001.75	1532.2	0.7518
308.15 K, m1 = 0.2999	1003.24	1534.4	0.7578
308.15 K, m1 = 0.3501	1004.74	1536.7	0.7641
308.15 K, m1 = 0.3998	1006.21	1538.9	0.7679
313.15 K, m1 = 0.05	–	1532.1	0.6609
313.15 K, m1 = 0.0999	–	1534.3	0.6662
313.15 K, m1 = 0.1499	–	1536.5	0.6686
313.15 K, m1 = 0.2001	–	1538.7	0.6721
313.15 K, m1 = 0.2504	999.881	1540.9	0.6759
313.15 K, m1 = 0.2999	1001.36	1543.1	0.6798
313.15 K, m1 = 0.3501	1002.86	1545.3	0.6851
313.15 K, m1 = 0.3998	1004.33	1547.5	0.6881
